According to the CheMixHub viscosity set:

Test: xn = mol fraction of the nth substance listed

CCC(C)=O + CCCCCCO
viscosity [mPa·s], 100 kPa
Settings	x1 = 0.0791	x1 = 0.1639	x1 = 0.2389	x1 = 0.3481	x1 = 0.4401	x1 = 0.5609	x1 = 0.6516	x1 = 0.7391	x1 = 0.8511	x1 = 0.9382
293.15 K	3.8	2.9	2.29	1.69	1.3	0.93	0.75	0.57	0.41	0.4
303.15 K	2.95	2.28	1.87	1.42	1.09	0.81	0.7	0.58	0.47	0.41
313.15 K	2.28	1.8	1.49	1.15	0.92	0.72	0.6	0.51	0.42	0.37
323.15 K	1.8	1.46	1.21	0.96	0.79	0.62	0.52	0.45	0.37	0.34

CCCCCCOC(C)=O + CCCCCCO
viscosity [mPa·s], 101.33 kPa
Settings	x1 = 0.0998	x1 = 0.2013	x1 = 0.3012	x1 = 0.4056	x1 = 0.4937	x1 = 0.6002	x1 = 0.7021	x1 = 0.8045	x1 = 0.9018
293.15 K	4.012	3.281	2.721	2.266	1.964	1.677	1.464	1.299	1.176
303.15 K	3.073	2.502	2.065	1.71	1.474	1.249	1.083	0.954	0.858
313.15 K	2.301	1.899	1.584	1.332	1.164	1.005	0.887	0.795	0.726

COCCOC + CCCCCCO
101 kPa
Settings	viscosity [mPa·s]
293.15 K, x1 = 0.03644	4.556
293.15 K, x1 = 0.07492	3.875
293.15 K, x1 = 0.1757	2.656
293.15 K, x1 = 0.2488	2.089
293.15 K, x1 = 0.3376	1.607
293.15 K, x1 = 0.4282	1.265
293.15 K, x1 = 0.5085	1.055
293.15 K, x1 = 0.5954	0.873
293.15 K, x1 = 0.6767	0.743
293.15 K, x1 = 0.7648	0.633
293.15 K, x1 = 0.8067	0.59
293.15 K, x1 = 0.8909	0.547
293.15 K, x1 = 0.9608	0.506
303.15 K, x1 = 0.03689	3.354
303.15 K, x1 = 0.08234	2.83
303.15 K, x1 = 0.1774	2.045
303.15 K, x1 = 0.2433	1.681
303.15 K, x1 = 0.3417	1.289
303.15 K, x1 = 0.4228	1.068
303.15 K, x1 = 0.5142	0.867
303.15 K, x1 = 0.5898	0.744
303.15 K, x1 = 0.6726	0.638
303.15 K, x1 = 0.7604	0.55
303.15 K, x1 = 0.8168	0.505
303.15 K, x1 = 0.8829	0.478
303.15 K, x1 = 0.9497	0.439
313.15 K, x1 = 0.02681	2.68
313.15 K, x1 = 0.04032	2.555
313.15 K, x1 = 0.07518	2.269
313.15 K, x1 = 0.1706	1.69
313.15 K, x1 = 0.3414	1.091
313.15 K, x1 = 0.4234	0.908
313.15 K, x1 = 0.5104	0.758
313.15 K, x1 = 0.5912	0.651
313.15 K, x1 = 0.6717	0.565
313.15 K, x1 = 0.7706	0.482
313.15 K, x1 = 0.8138	0.467
313.15 K, x1 = 0.8786	0.432
313.15 K, x1 = 0.9463	0.397

CCC(C)=O + CCCCCO
viscosity [mPa·s], 100 kPa
Settings	x1 = 0.0814	x1 = 0.1574	x1 = 0.2391	x1 = 0.3486	x1 = 0.4417	x1 = 0.5529	x1 = 0.6492	x1 = 0.7389	x1 = 0.8509	x1 = 0.9389
293.15 K	2.92	2.27	1.8	1.33	1.07	0.84	0.66	0.55	0.42	0.39
303.15 K	2.31	1.82	1.46	1.12	0.91	0.73	0.61	0.52	0.45	0.4
313.15 K	1.8	1.45	1.2	0.92	0.77	0.63	0.54	0.46	0.4	0.36
323.15 K	1.45	1.18	0.99	0.78	0.66	0.54	0.46	0.4	0.35	0.32

CCCCCCOC(C)=O + CCCCCO
viscosity [mPa·s], 101.33 kPa
Settings	x1 = 0.1057	x1 = 0.2038	x1 = 0.3074	x1 = 0.4005	x1 = 0.5019	x1 = 0.6009	x1 = 0.7083	x1 = 0.8029	x1 = 0.9041
293.15 K	3.347	2.798	2.346	2.028	1.755	1.548	1.373	1.253	1.153
303.15 K	2.392	2.002	1.682	1.456	1.262	1.115	0.991	0.906	0.835
313.15 K	1.889	1.594	1.352	1.181	1.035	0.924	0.83	0.766	0.712

COC(C)=O + CCCCCO
298.15 K, 101.33 kPa
Settings	viscosity [mPa·s]
x1 = 0.1014	2.381
x1 = 0.2082	1.64
x1 = 0.2879	1.292
x1 = 0.3821	1.011
x1 = 0.4786	0.823
x1 = 0.5766	0.69
x1 = 0.6788	0.575
x1 = 0.7517	0.505
x1 = 0.846	0.425
